Data as given in patent US20250221410A1, “SUBSTITUTED 2-C-AZINES AND SALTS THEREOF, AND USE THEREOF AS HERBICIDAL ACTIVE SUBSTANCES” (BAYER AKTIENGESELLSCHAFT, priority 2022, published 2025).

Columns and labels:
[1] = system: ABUTH: Abutilon theophrasti; experiment: Post-emergence herbicidal efficacy at 1280 g/ha, ABUTH; type: in vivo; details: rated visually after about 3 weeks vs untreated controls, 100% = plants have died, 0% = like control plants
How it was run: (§1)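 Plants treated 2–3 weeks post-sowing, one-leaf stage, foliar spray of WP or EC preparations with 0.5% additive at a water rate equivalent to 600 L/ha. Kept under optimum greenhouse conditions ~3 weeks, then scored visually on a 0–100% scale.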

[2] = system: AMARE: Amaranthus retroflexus; experiment: Post-emergence herbicidal efficacy at 1280 g/ha, AMARE; type: in vivo; details: rated visually after about 3 weeks vs untreated controls, 100% = plants have died, 0% = like control plants
How it was run: as §1

[3] = system: ECHCG: Echinochloa crus-galli; experiment: Post-emergence herbicidal efficacy at 1280 g/ha, ECHCG; type: in vivo; details: rated visually after about 3 weeks vs untreated controls, 100% = plants have died, 0% = like control plants
How it was run: as §1

KCHSC: Kochia scoparia [4] = experiment: Post-emergence herbicidal efficacy at 1280 g/ha, KCHSC; type: in vivo; details: visual rating about 3 weeks after treatment vs untreated controls
How it was run: as §1

POAAN: Poa annua = experiment: Post-emergence herbicidal efficacy at 1280 g/ha, POAAN; type: in vivo; details: visual rating about 3 weeks after treatment vs untreated controls
How it was run: as §1

SETVI: Setaria viridis [5] = experiment: Post-emergence herbicidal efficacy at 1280 g/ha, SETVI; type: in vivo; details: visual rating about 3 weeks after treatment vs untreated controls
How it was run: as §1

STEME: Stellaria media = experiment: Post-emergence herbicidal efficacy at 1280 g/ha, STEME; type: in vivo; details: visual rating about 3 weeks after treatment vs untreated controls
How it was run: as §1

VERPE: Veronica persica [6] = experiment: Post-emergence herbicidal efficacy at 1280 g/ha, VERPE; type: in vivo; details: visual rating about 3 weeks after treatment vs untreated controls
How it was run: as §1

POLCO = experiment: Post-emergence herbicidal efficacy at 80 g/ha, POLCO; type: in vivo, Polygonum convolvulus; details: visual rating about 3 weeks after treatment vs untreated controls
Procedure: (§2) Seeds of monocotyledonous and dicotyledonous weeds and crop plants were placed in sandy loam in plastic or organic planting pots, covered with soil and cultivated in a greenhouse under controlled growth conditions. 2 to 3 weeks after sowing, the test plants were treated at the one-leaf stage. The compounds of the invention, formulated in the form of wettable powders (WP) or as emulsion concentrates (EC), were then sprayed onto the green parts of the plants as aqueous suspension or emulsion with addition of 0.5% additive at a water application rate of 600 l/ha (converted). After the test plants had been kept in the greenhouse under optimum growth conditions for about 3 weeks, the activity of the preparations was rated visually in comparison to untreated controls. For example, 100% activity=the plants have died, 0% activity=like control plants. Tables B1 to B10 below show the effects of selected compounds of the general formula (I) according to Table 1 on various harmful plants and an application rate corresponding to 80 g/ha, which were obtained by the experimental procedure mentioned above.

VIOTR: Viola tricolor = experiment: Post-emergence herbicidal efficacy at 80 g/ha, VIOTR; type: in vivo; details: visual rating about 3 weeks after treatment vs untreated controls
Procedure: as §2

[7] = system: ABUTH: Abutilon theophrasti; experiment: Pre-emergence herbicide efficacy at 1280 g/ha, ABUTH; type: in vivo; details: visual scoring after about 3 weeks vs untreated controls
How it was run: (§3)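 Visual scoring after about 3 weeks in the greenhouse, as percent activity relative to untreated pots, where 0% matches controls and 100% means dead plants. Treatment was pre-emergence: WP or EC formulations sprayed onto soil covering the sown seeds, 600 L/ha water plus 0.5% additive.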

[8] = system: AMARE: Amaranthus retroflexus; experiment: Pre-emergence herbicide efficacy at 1280 g/ha, AMARE; type: in vivo; details: visual scoring after about 3 weeks vs untreated controls
How it was run: as §3

[9] = system: ECHCG: Echinochloa crus-galli; experiment: Pre-emergence herbicide efficacy at 1280 g/ha, ECHCG; type: in vivo; details: visual scoring after about 3 weeks vs untreated controls
How it was run: as §3

LOLRI: Lolium rigidum = experiment: Pre-emergence herbicide efficacy at 1280 g/ha, LOLRI; type: in vivo; details: visual scoring after about 3 weeks vs untreated controls
How it was run: as §3

[10] = system: MATIN: Matricaria inodora; experiment: Pre-emergence herbicide efficacy at 1280 g/ha, MATIN; type: in vivo; details: visual scoring after about 3 weeks vs untreated controls
How it was run: as §3

SETVI: Setaria viridis [11] = experiment: Pre-emergence herbicide efficacy at 1280 g/ha, SETVI; type: in vivo; details: visual scoring vs untreated controls
How it was run: as §3

VERPE: Veronica persica [12] = experiment: Pre-emergence herbicide efficacy at 1280 g/ha, VERPE; type: in vivo; details: visual scoring vs untreated controls
How it was run: as §3

[13] = system: AMARE: Amaranthus retroflexus; experiment: Pre-emergence herbicide efficacy at 80 g/ha, AMARE; type: in vivo; details: scored visually after about 3 weeks
How it was run: (§4)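 Pre-emergence soil-surface spray, WP/EC formulation, 0.5% additive, 600 l/ha water volume. Greenhouse, ~3 weeks. Visual % activity vs untreated (100% = dead plants).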

[14] = system: ECHCG: Echinochloa crus-galli; experiment: Pre-emergence herbicide efficacy at 80 g/ha, ECHCG; type: in vivo; details: scored visually after about 3 weeks
Text: (§5) Seeds of monocotyledonous and dicotyledonous weed plants and crop plants were placed in plastic or organic planting pots and covered with soil. The compounds of the invention, formulated in the form of wettable powders (WP) or as emulsion concentrates (EC), were then applied to the surface of the covering soil as aqueous suspension or emulsion with addition of 0.5% additive at a water application rate equivalent to 600 l/ha. After the treatment, the pots were placed in a greenhouse and kept under good growth conditions for the test plants. After about 3 weeks, the efficacy of the preparations was scored visually in comparison with untreated controls as percentages. For example, 100% activity=the plants have died, 0% activity=like control plants. Tables D1 to D12 below show the effects of selected compounds of the general formula (I) according to Table 1 on various harmful plants and an application rate corresponding to 80 g/ha, which were obtained by the experimental procedure mentioned above.

KCHSC: Kochia scoparia [15] = experiment: Pre-emergence herbicide efficacy at 80 g/ha, KCHSC; type: in vivo; details: scored visually after about 3 weeks
Text: as §5

[16] = system: MATIN: Matricaria inodora; experiment: Pre-emergence herbicide efficacy at 80 g/ha, MATIN; type: in vivo; details: scored visually after about 3 weeks
How it was run: as §4

SETVI: Setaria viridis [17] = experiment: Pre-emergence herbicide efficacy at 80 g/ha, SETVI; type: in vivo; details: scored visually after about 3 weeks
How it was run: as §4

VERPE: Veronica persica [18] = experiment: Pre-emergence herbicide efficacy at 80 g/ha, VERPE; type: in vivo; details: scored visually after about 3 weeks
How it was run: as §4

KCHSC: Kochia scoparia [19] = experiment: Post-emergence herbicidal efficacy at 80 g/ha, KCHSC; type: in vivo; details: visual rating about 3 weeks after treatment vs untreated controls
Procedure: as §2

Compound	Post-emergence efficacy at 1280 g/ha against ABUTH in % [1] [%]	Post-emergence efficacy at 1280 g/ha against AMARE in % [2] [%]	Post-emergence efficacy at 1280 g/ha against ECHCG in % [3] [%]	Post-emergence efficacy against KCHSC (KCHSC: Kochia scoparia [4]) [%]	Post-emergence efficacy against POAAN (POAAN: Poa annua) [%]	Post-emergence efficacy against SETVI (SETVI: Setaria viridis [5]) [%]	Post-emergence efficacy against STEME (STEME: Stellaria media) [%]	Post-emergence efficacy against VERPE (VERPE: Veronica persica [6]) [%]	Post-emergence efficacy against VIOTR (VIOTR: Viola tricolor) [%]	Pre-emergence efficacy against ABUTH [7] [%]	Pre-emergence efficacy against AMARE [8] [%]	Pre-emergence efficacy against ECHCG [9] [%]	Pre-emergence efficacy against LOLRI (LOLRI: Lolium rigidum) [%]	Pre-emergence efficacy against MATIN [10] [%]	Pre-emergence efficacy against SETVI in % (SETVI: Setaria viridis [11]) [%]	Pre-emergence efficacy against VERPE in % (VERPE: Veronica persica [12]) [%]	Pre-emergence efficacy against AMARE in % [13] [%]	Pre-emergence efficacy against ECHCG in % [14] [%]	Pre-emergence efficacy against KCHSC in % (KCHSC: Kochia scoparia [15]) [%]	Pre-emergence efficacy against MATIN in % [16] [%]	other results
Fc1cnc(Oc2cccc(Br)c2Cc2ncc(Cl)cn2)nc1 [Example 1-54]	100	100	100	100	100	100	100	100	100	100	100	100	100	100	100	100	100	100	100	90	Post-emergence efficacy against POLCO (POLCO): 80%; Pre-emergence efficacy against SETVI in % (SETVI: Setaria viridis [17]): 100%; Pre-emergence efficacy against VERPE in % (VERPE: Veronica persica [18]): 90%
Clc1cnc(Cc2c(Cl)cccc2Oc2ncc(Cl)cn2)nc1 [Example 1-56]	90	90	90	90	90	90	90	90	100	100	100	100	100	100	100	100	100	80	90	100	Post-emergence efficacy against KCHSC (KCHSC: Kochia scoparia [19]): 80%; Post-emergence efficacy against POLCO (POLCO): 80%; Pre-emergence efficacy against SETVI in % (SETVI: Setaria viridis [17]): 100%; Pre-emergence efficacy against VERPE in % (VERPE: Veronica persica [18]): 90%
N#Cc1cccc(Oc2ncc(F)cn2)c1Cc1ncc(Cl)cn1 [Example 1-59]	100	100	90	100	100	90	100	100	100	100	100	100	100	100	100	100	100	100	100	100	Post-emergence efficacy against KCHSC (KCHSC: Kochia scoparia [19]): 90%; Pre-emergence efficacy against SETVI in % (SETVI: Setaria viridis [17]): 100%; Pre-emergence efficacy against VERPE in % (VERPE: Veronica persica [18]): 90%
FC(F)c1cc(-c2ccccc2Cc2ncc(Cl)cn2)on1 [Example 1-133]	100	100	100	100	100	100	100	100	100	100	100	100	90	100	100	100	100	80	100	80	Post-emergence efficacy against KCHSC (KCHSC: Kochia scoparia [19]): 100%; Post-emergence efficacy against POLCO (POLCO): 100%; Pre-emergence efficacy against SETVI in % (SETVI: Setaria viridis [17]): 100%; Pre-emergence efficacy against VERPE in % (VERPE: Veronica persica [18]): 90%
